Among the data in ChEMBL document CHEMBL1641556, “MDCK cell permeability characteristics of a sulfenamide prodrug: strategic implications in considering sulfenamide prodrugs for oral delivery of NH-acids” (Bioorg Med Chem Lett, 2011) are t1/2, Papp A→B and Papp B→A values, retold here.

Molecules are shown by their SMILES.

Data set [1] can be described thus: Hydrolytic stability of the compound assessed as half life at pH 6. The format is physicochemical. As to conditions: buffer.
Data set [2] is described as follows: Apparent permeability from apical to basolateral side of MDCK cells. The format is ADME, cell-based, Canis lupus familiaris. The following applies: dog.
Data set [3] can be described thus: Apparent permeability from basolateral to apical side of MDCK cells. The format is ADME, cell-based, Canis lupus familiaris. The following applies: dog.

As to `N[C@@H](CSNC(=O)c1ccccc1)C(=O)O`, the t1/2 in data set [1] is 6.3 yr.

Broadly, the Papp A→B is how fast a substance crosses the layer from the apical side. For orientation: Papp B→A means how fast a substance crosses the layer from the basolateral side. Turning to `CC(=O)NC[C@H]1CN(c2ccc(N3CCOCC3)c(F)c2)C(=O)O1` [LINEZOLID], the Papp A→B in data set [2] was 9 ×10⁻⁶ cm/s. The Papp B→A in data set [3] was found to be 10.6 ×10⁻⁶ cm/s.
